Experimental data as given in patent US20230115350A1 (Cedilla Therapeutics, Inc., priority 2021, published 2023).

Tests used:
[1] = biological target: TEAD1 protein (YAP Binding Domain) (Homo sapiens, UniProt P28347); experiment: TEAD1 lipid pocket compound displacement assay (TR-FRET, Cy5-probe); details: 60 minutes incubation at room temperature; TR-FRET 665 nm/620 nm; read-out: CDA IC50
Protocol: Compound Displacement Assay.
A TEAD1 lipid pocket displacement assay was carried out according to the following protocol. Purified His-tagged TEAD1 protein (YAP Binding Domain) was pre-mixed with a Cy5-probe (Cy5-conjugated to a small molecule that binds in the TEAD1 lipid pocket) and Terbium-labeled anti-His antibody (Cisbio Cat 61HI2TLB). The binding of the Cy5-probe to anti-His-Tb/His-tag TEAD1 complex yielded a TR-FRET signal. […] After 60 minutes incubation at room temperature of compounds with the His-TEAD1/anti-His-Tb/Cy5-probe complex, the plate was read on a plate reader (BMG ClarioStar Cat 430-1300) using TR-FRET mode with wavelengths of 665 nm/620 nm. The potency of compounds as TEAD1 lipid pocket binders was determined by IC50 value generated using a non-linear 4 parameter curve fit.

[2] = tested on: NCI-H226; experiment: 72H TEAD Proliferation Assay (Cell Titer-Glo 2.0); type: cell-based; details: Homo sapiens, NCI-H226, 72 h, CTG 2.0, cell line not given
Protocol: The effect of TEAD inhibition on cell proliferation was assayed using Cell Titer Glo (CTG) 2.0 to measure response in mesothelioma cell lines NCI-H226 (ATCC, #CRL-5826) and NCI-H28 (ATCC, #CRL-5820).
The 72H TEAD Proliferation assay utilizes Cell Titer-Glo 2.0 (Promega, #G9243) to measure the proliferation of cells in the presence or absence of compound. Cell Titer-Glo 2.0 determines the amount of viable cells by quantifying ATP (an indication of metabolically active cells). It utilizes the conversion of Luciferin to Oxyluciferin and a luminescent signal with the use of ATP to report the quantity of viable cells in culture. Within cells that are continually growing, ATP is being synthesized to meet their metabolic demands, meanwhile the opposite is true for cells that are dying or slowing down their proliferation and either no longer using ATP or are using less, respectively. The NF2-deficient NCI-H226 has been genetically validated as a cell line that is sensitive to TEAD inhibition. The NF2-wild type NCI-H28 has been genetically validated as a cell line that is not sensitive to TEAD inhibition and grows independently of TEAD activity.
Compounds were screened against the responsive NCI-H226 cell line to assess the compounds' ability to inhibit TEAD and cell growth. Compounds were also screened against the non-responsive NCI-H28 cell line to ascertain whether the inhibition of cell growth was due to inhibition of the target TEAD or whether the inhibition was due to off-target cytotoxicity.
1) Assay ready plates (ARPs) were prepared by Echo acoustic liquid handler. For each compound, duplicate of 10-point half-log dilution series were dispensed in a 384-well microplate (Corning 3571).
5) NCI-H226 or NCI-H28 cells were harvested from culture in Assay Medium 1 and the multidrop Combi reagent dispenser was used to seed cells at 500 cells per 50 ul in each well of the ARPs and one Corning 3571 plate without compounds for Time 0 (TO) readout.
6) The TO plate was incubated for 2 hours at 37° C. with 5% CO2 to allow cells to settle, then the CTG Assay was performed.
7) All ARPs were incubated for 72 hours at 37° C. with 5% CO2, then the CTG Assay was performed for Time 72H (T72) readout.
8) CTG Assay: Bravo liquid handler (Agilent) was used to add 25 ul of CTG 2.0 to all columns of the plate except for Column 24, which was used to subtract out the background. After CTG addition, plates were placed on shaker at 800 RPM for 15 minutes at room temperature and kept in the dark. Luminescence was measured using EnVision multilabel plate reader with ultra-sensitive detection module.
9) Data Analysis: First background luminescence (no CTG wells) was subtracted from luminescence reading of all wells, then TO luminescence was subtracted from T72 luminescence. To compare anti-proliferative effect of compounds, GI50 was obtained by fitting dose response curves with nonlinear regression curve fit.

Chain of TEAD1 protein (YAP Binding Domain) (P28347 209-426 limits assumed): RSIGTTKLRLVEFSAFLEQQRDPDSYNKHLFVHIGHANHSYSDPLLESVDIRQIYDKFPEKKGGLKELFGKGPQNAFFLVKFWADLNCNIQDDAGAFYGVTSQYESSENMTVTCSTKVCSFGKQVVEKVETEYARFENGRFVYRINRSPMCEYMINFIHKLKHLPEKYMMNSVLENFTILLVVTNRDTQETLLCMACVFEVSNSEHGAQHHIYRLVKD

| SMILES | IC50 [1] | GI50 [2] |
| --- | --- | --- |
| C=CC(=O)Nc1ccc(OCC2CCC(F)(F)CC2)c(C#N)c1 [Compound 50, N-(3-cyano-4-((4,4-difluorocyclohexyl)methoxy)phenyl)acrylamide] | ≤ 0.25 µM | ≤ 0.25 µM |
| C=CC(=O)Nc1ccc(OCc2cccc(F)c2)c(C)c1 [Compound 51, N-(4-((3-fluorobenzyl)oxy)-3-methylphenyl)acrylamide] | 0.25 to 0.5 µM | > 3 µM |
| C=CC(=O)Nc1ccc(OCC2CCOCC2)c(F)c1 [Compound 54, N-(3-fluoro-4-((tetrahydro-2H-pyran-4-yl)methoxy)phenyl)acrylamide] | > 2 µM | 1 to 3 µM |
| C=CC(=O)Nc1ccc(OCC2CCCCC2)c(F)c1 [Compound 55, N-(4-(cyclohexylmethoxy)-3-fluorophenyl)acrylamide] | ≤ 0.25 µM | 0.25 to 1 µM |
| C=CC(=O)Nc1ccc(OCc2csc3ccccc23)c(F)c1 [Compound 60, N-(4-(benzo[b]thiophen-3-ylmethoxy)-3-fluorophenyl)acrylamide] | 0.5 to 2 µM | > 3 µM |
| C=CC(=O)Nc1ccc(OCc2ccc(C#N)s2)c(F)c1 [Compound 63, N-(4-((5-cyanothiophen-2-yl)methoxy)-3-fluorophenyl)acrylamide] | 0.5 to 2 µM | 1 to 3 µM |
| C=CC(=O)Nc1ccc(OCc2cncc(C)c2)c(F)c1 [Compound 71, N-(3-fluoro-4-((5-methylpyridin-3-yl)methoxy)phenyl)acrylamide] | > 2 µM | > 3 µM |
| C=CC(=O)Nc1ccc(OCc2ccc(Cl)nc2)c(F)c1 [Compound 72, N-(4-((6-chloropyridin-3-yl)methoxy)-3-fluorophenyl)acrylamide] | 0.5 to 2 µM | > 3 µM |
| C=CC(=O)Nc1ccc(OCc2cccnc2Br)c(F)c1 [Compound 74, N-(4-((2-bromopyridin-3-yl)methoxy)-3-fluorophenyl)acrylamide] | > 2 µM | > 3 µM |
| C=CC(=O)Nc1ccc(OCc2cccnc2Cl)c(F)c1 [Compound 76, N-(4-((2-chloropyridin-3-yl)methoxy)-3-fluorophenyl)acrylamide] | > 2 µM | > 3 µM |
| C=CC(=O)Nc1ccc(OCc2cc(F)ccc2Cl)c(F)c1 [Compound 78, N-(4-((2-chloro-5-fluorobenzyl)oxy)-3-fluorophenyl)acrylamide] | 0.5 to 2 µM | > 3 µM |
| C=CC(=O)Nc1ccc(OCc2cccc(F)c2Cl)c(F)c1 [Compound 83, N-(4-((2-chloro-3-fluorobenzyl)oxy)-3-fluorophenyl)acrylamide] | ≤ 0.25 µM | 0.25 to 1 µM |
| C=CC(=O)Nc1ccc(OCc2ccc(F)cc2Cl)c(F)c1 [Compound 84, N-(4-((2-chloro-4-fluorobenzyl)oxy)-3-fluorophenyl)acrylamide] | 0.5 to 2 µM | 1 to 3 µM |
| C=CC(=O)Nc1ccc(OCC2CCCC(C(F)(F)F)C2)c(F)c1 (centres unmarked) [Compound 91, N-(3-fluoro-4-((3-(trifluoromethyl)cyclohexyl)methoxy)phenyl)acrylamide] | ≤ 0.25 µM | 0.25 to 1 µM |
| C=CC(=O)Nc1ccc(OCc2ccc(F)c(F)c2)c(F)c1 [Compound 96, N-(4-((3,4-difluorobenzyl)oxy)-3-fluorophenyl)acrylamide] | ≤ 0.25 µM | 0.25 to 1 µM |
| C=CC(=O)Nc1ccc(OCc2cnc(C(F)(F)F)nc2)c(F)c1 [Compound 98, N-(3-fluoro-4-((2-(trifluoromethyl)pyrimidin-5-yl)methoxy)phenyl)acrylamide] | > 2 µM | 1 to 3 µM |
| C=CC(=O)Nc1ccc(OCc2cccc(Cl)c2F)c(F)c1 [Compound 99, N-(4-((3-chloro-2-fluorobenzyl)oxy)-3-fluorophenyl)acrylamide] | ≤ 0.25 µM | > 3 µM |

| SMILES | IC50 [1] | GI50 [2] |
| --- | --- | --- |
| C=CC(=O)Nc1ccc(OCc2cccc(F)c2)c(F)c1 [Compound 100, N-(3-fluoro-4-((3-fluorobenzyl)oxy)phenyl)acrylamide] | 0.25 to 0.5 µM | > 3 µM |
| C=CC(=O)Nc1ccc(NCc2cccc(F)c2)c(F)c1 [Compound 101, N-(3-fluoro-4-((3-fluorobenzyl)amino)phenyl)acrylamide] | 0.5 to 2 µM | 1 to 3 µM |
| C=CC(=O)Nc1ccc(OCCC(F)(F)F)c(F)c1 [Compound 103, N-(3-fluoro-4-(3,3,3-trifluoropropoxy)phenyl)acrylamide] | > 2 µM | 1 to 3 µM |
| C=CC(=O)Nc1ccc(OCc2cncc(C(F)(F)F)c2)c(F)c1 [Compound 104, N-(3-fluoro-4-((5-(trifluoromethyl)pyridin-3-yl)methoxy)phenyl)acrylamide] | 0.25 to 0.5 µM | 0.25 to 1 µM |
| C=CC(=O)Nc1ccc(OC(C)c2cccc(C(F)(F)F)c2)c(F)c1 (centres unmarked) [Compound 105, N-(3-fluoro-4-(1-(3-(trifluoromethyl)phenyl)ethoxy)phenyl)acrylamide] | ≤ 0.25 µM | 0.25 to 1 µM |
| C=CC(=O)Nc1ccc(Oc2cccc(F)c2)c(F)c1 [Compound 106, N-(3-fluoro-4-(3-fluorophenoxy)phenyl)acrylamide] | ≤ 0.25 µM | > 3 µM |
| C=CC(=O)Nc1ccc(Oc2ccc(F)cc2)c(F)c1 [Compound 107, N-(3-fluoro-4-(4-fluorophenoxy)phenyl)acrylamide] | ≤ 0.25 µM | 0.25 to 1 µM |
| C=CC(=O)Nc1ccc(Nc2ccc(F)cc2)c(F)c1 [Compound 108, N-(3-fluoro-4-((4-fluorophenyl)amino)phenyl)acrylamide] | > 2 µM | 0.25 to 1 µM |
| C=CC(=O)Nc1ccc(NCC2CCC(F)(F)CC2)c(F)c1 [Compound 109, N-(4-(((4,4-difluorocyclohexyl)methyl)amino)-3-fluorophenyl)acrylamide] | 0.25 to 0.5 µM | 0.25 to 1 µM |
| C=CC(=O)Nc1ccc(Oc2cccc(C(C)(C)C)c2)c(F)c1 [Compound 110, N-(4-(3-(tert-butyl)phenoxy)-3-fluorophenyl)acrylamide] | 0.25 to 0.5 µM | 1 to 3 µM |
| C=CC(=O)Nc1ccc(Oc2ccc(C(C)(C)C)cc2)c(F)c1 [Compound 111, N-(4-(4-(tert-butyl)phenoxy)-3-fluorophenyl)acrylamide] | ≤ 0.25 µM | 0.25 to 1 µM |
| C=CC(=O)Nc1ccc(Oc2ccccc2)c(F)c1 [Compound 112, N-(3-fluoro-4-phenoxyphenyl)acrylamide] | 0.25 to 0.5 µM | > 3 µM |
| C=CC(=O)Nc1ccc(Oc2cccc(C)c2)c(F)c1 [Compound 113, N-(3-fluoro-4-(m-tolyloxy)phenyl)acrylamide] | ≤ 0.25 µM | 1 to 3 µM |
| C=CC(=O)Nc1ccc(Oc2ccc(C)cc2)c(F)c1 [Compound 114, N-(3-fluoro-4-(p-tolyloxy)phenyl)acrylamide] | ≤ 0.25 µM | > 3 µM |
| C=CC(=O)Nc1ccc(OCc2cccc(C(F)(F)F)n2)c(F)c1 [Compound 115, N-(3-fluoro-4-((6-(trifluoromethyl)pyridin-2-yl)methoxy)phenyl)acrylamide] | 0.25 to 0.5 µM | ≤ 0.25 µM |
| C=CC(=O)Nc1ccc(OCc2ccnc(C(F)(F)F)c2)c(F)c1 [Compound 116, N-(3-fluoro-4-((2-(trifluoromethyl)pyridin-4-yl)methoxy)phenyl)acrylamide] | 0.25 to 0.5 µM | 0.25 to 1 µM |
| C=CC(=O)Nc1ccc(OCc2cc(C(F)(F)F)ccn2)c(F)c1 [Compound 117, N-(3-fluoro-4-((4-(trifluoromethyl)pyridin-2-yl)methoxy)phenyl)acrylamide] | 0.25 to 0.5 µM | 0.25 to 1 µM |
